# Source: ChEMBL document CHEMBL6182925 (J Med Chem, 2025)
# Tests used:
# [1] = Kinetic solubility of compound at pH 4.5; type: physicochemical; conditions: buffer, read-out: Kinetic_solubility
# BaF3 [2] = assay: Antitumor activity against mouse BaF3 cells harboring TPR-D1228N mutant cells allografted in athymic BALB/c nude mouse at 10 mg/kg, po bid treated for 10 days relative to control; type: functional; conditions: BaF3, 240 h, time 10 day, read-out: TGI
# [3] = Kinetic solubility of compound at pH 2; type: physicochemical; conditions: buffer, read-out: Kinetic_solubility
# [4] = Volume of distribution in male Sprague-Dawley rat at 3 mg/kg, iv; type: ADME, organism-based; conditions: in vivo
# [5] = AUClast in Balb/c mouse at 10 mg/kg, po; type: ADME, organism-based; conditions: in vivo
# L-type calcium channel = L-type calcium channel (Homo sapiens, UniProt O60840+Q01668+Q13698+Q13936); assay: Inhibition of Calcium channel L-type (unknown origin) at 10 uM by CEREP analysis relative to control; type: protein assay
# [6] = Oral bioavailability in male Beagle dog at 30 mg/kg; type: ADME, organism-based, Canis lupus familiaris; conditions: in vivo
# [7] = Oral bioavailability in Balb/c mouse at 10 mg/kg; type: ADME, organism-based; conditions: in vivo
# [8] = Dose-normalized AUC in male Sprague-Dawley rat at 10 mg/kg, po; type: ADME, organism-based; conditions: in vivo
# [9] = biological target: T1, Alpha-2A adrenergic receptor (Homo sapiens) (UniProt P08913); assay: Inhibition of alpha 2A adrenergic receptor (unknown origin) at 10 uM by CEREP analysis relative to control
# T1 sequence (whole entry): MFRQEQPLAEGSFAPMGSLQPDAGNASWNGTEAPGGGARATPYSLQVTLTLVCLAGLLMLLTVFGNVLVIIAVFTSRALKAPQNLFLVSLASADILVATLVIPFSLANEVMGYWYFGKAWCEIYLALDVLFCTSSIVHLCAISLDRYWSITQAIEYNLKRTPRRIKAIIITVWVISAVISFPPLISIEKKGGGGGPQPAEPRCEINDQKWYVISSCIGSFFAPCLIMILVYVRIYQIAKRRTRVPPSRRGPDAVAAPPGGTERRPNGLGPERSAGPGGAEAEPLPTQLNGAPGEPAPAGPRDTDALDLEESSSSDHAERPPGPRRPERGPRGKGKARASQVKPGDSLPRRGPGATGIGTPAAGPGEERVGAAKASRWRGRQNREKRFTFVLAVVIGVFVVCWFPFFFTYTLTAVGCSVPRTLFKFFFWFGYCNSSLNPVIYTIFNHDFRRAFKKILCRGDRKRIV
# [10] = Oral bioavailability in male Sprague-Dawley rat at 10 mg/kg; type: ADME, organism-based; conditions: in vivo
# [11] = AUClast in male Beagle dog at 15 mg/kg, po; type: ADME, organism-based, Canis lupus familiaris; conditions: in vivo
# cells = conditions: Mus musculus, BaF3/TRP-Met, 72 h
# [12] = Dose-normalized AUC in female Balb/c mouse at 10 mg/kg, po; type: ADME, organism-based; conditions: in vivo
# [13] = biological target: 5-hydroxytryptamine receptor 1B (Homo sapiens) (UniProt P28222); assay: Inhibition of 5-HT1B receptor (unknown origin) at 10 uM by CEREP analysis relative to control
# Chain of 5-hydroxytryptamine receptor 1B (Homo sapiens) (P28222 whole entry): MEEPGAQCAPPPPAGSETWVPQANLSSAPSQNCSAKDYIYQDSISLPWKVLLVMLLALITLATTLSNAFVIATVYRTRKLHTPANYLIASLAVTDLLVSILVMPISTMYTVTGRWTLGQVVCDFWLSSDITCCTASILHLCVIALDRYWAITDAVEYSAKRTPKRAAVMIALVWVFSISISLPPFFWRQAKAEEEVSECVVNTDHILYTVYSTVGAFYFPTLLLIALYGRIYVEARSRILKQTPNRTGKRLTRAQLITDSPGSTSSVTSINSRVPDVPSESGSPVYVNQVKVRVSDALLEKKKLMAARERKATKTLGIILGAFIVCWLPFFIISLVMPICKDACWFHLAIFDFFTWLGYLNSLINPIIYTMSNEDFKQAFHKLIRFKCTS
# [14] = biological target: Sodium-dependent serotonin transporter (Homo sapiens) (UniProt P31645); assay: Inhibition of SERT (unknown origin) at 10 uM by CEREP analysis relative to control
# Chain of Sodium-dependent serotonin transporter (Homo sapiens) (P31645 whole entry, looked up): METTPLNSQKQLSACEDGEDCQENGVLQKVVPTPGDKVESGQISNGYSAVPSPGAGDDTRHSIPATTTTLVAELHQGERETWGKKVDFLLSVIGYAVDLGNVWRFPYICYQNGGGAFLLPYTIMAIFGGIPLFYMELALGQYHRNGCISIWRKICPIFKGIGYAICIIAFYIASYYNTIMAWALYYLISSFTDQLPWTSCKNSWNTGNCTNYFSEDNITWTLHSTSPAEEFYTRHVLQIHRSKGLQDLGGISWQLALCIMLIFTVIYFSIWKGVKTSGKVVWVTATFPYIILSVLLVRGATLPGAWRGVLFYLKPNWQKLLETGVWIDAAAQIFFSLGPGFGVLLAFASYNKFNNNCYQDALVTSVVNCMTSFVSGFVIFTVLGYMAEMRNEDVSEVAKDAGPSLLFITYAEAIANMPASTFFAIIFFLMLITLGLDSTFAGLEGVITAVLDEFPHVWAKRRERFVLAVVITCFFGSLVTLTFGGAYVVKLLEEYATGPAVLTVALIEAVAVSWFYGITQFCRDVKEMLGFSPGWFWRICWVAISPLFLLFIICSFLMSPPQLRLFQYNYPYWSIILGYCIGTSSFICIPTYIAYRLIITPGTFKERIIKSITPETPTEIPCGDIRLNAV
# [15] = biological target: 3',5'-cyclic-AMP phosphodiesterase 4D (Homo sapiens) (UniProt Q08499); assay: Inhibition of PDE4D2 (unknown origin) at 10 uM by CEREP analysis relative to control
# Chain of 3',5'-cyclic-AMP phosphodiesterase 4D (Homo sapiens) (Q08499 whole entry): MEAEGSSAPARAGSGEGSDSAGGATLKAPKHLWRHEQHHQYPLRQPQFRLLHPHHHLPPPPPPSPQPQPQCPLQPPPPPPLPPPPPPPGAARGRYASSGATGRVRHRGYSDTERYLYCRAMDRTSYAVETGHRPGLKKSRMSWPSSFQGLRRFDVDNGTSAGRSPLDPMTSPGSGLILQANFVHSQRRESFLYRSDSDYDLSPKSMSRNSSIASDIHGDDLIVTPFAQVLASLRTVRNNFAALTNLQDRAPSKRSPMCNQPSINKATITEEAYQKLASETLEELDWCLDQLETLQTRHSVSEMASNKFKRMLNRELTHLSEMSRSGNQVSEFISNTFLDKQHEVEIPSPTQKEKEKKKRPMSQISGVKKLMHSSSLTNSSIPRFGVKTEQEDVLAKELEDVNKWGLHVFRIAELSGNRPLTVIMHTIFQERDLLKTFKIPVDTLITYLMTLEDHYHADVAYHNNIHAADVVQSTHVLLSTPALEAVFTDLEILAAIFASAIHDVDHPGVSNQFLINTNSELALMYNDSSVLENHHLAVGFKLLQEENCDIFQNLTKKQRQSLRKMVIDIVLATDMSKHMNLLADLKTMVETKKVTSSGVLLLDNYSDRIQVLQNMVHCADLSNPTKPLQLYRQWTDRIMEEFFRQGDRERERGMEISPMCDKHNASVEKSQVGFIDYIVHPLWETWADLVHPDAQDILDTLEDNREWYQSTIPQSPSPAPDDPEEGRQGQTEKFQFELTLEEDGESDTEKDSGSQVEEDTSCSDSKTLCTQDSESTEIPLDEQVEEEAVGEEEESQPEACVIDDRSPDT
# [16] = Half life in male Sprague-Dawley rat at 3 mg/kg, iv; type: ADME, organism-based; conditions: in vivo
# [17] = Oral bioavailability in male Sprague-Dawley rat at 30 mg/kg; type: ADME, organism-based; conditions: in vivo
# [18] = Clearance in male Beagle dog at 2 mg/kg, iv; type: ADME, organism-based, Canis lupus familiaris; conditions: in vivo
# [19] = Half life in female Balb/c mouse at 5 mg/kg, iv; type: ADME, organism-based; conditions: in vivo
# [20] = Stability in rat hepatocytes measured for 175 mins; type: ADME, cell-based, Hepatocyte; conditions: 2.917 h
# [21] = Oral bioavailability in male Beagle dog at 15 mg/kg; type: ADME, organism-based, Canis lupus familiaris; conditions: in vivo
# BaF3 [22] = assay: cells; conditions: Mus musculus, BaF3, 72 h
# [23] = biological target: cGMP-inhibited 3',5'-cyclic phosphodiesterase 3A (Homo sapiens) (UniProt Q14432); assay: Inhibition of PDE3A (unknown origin) at 10 uM by CEREP analysis relative to control
# Chain of cGMP-inhibited 3',5'-cyclic phosphodiesterase 3A (Homo sapiens) (Q14432 whole entry): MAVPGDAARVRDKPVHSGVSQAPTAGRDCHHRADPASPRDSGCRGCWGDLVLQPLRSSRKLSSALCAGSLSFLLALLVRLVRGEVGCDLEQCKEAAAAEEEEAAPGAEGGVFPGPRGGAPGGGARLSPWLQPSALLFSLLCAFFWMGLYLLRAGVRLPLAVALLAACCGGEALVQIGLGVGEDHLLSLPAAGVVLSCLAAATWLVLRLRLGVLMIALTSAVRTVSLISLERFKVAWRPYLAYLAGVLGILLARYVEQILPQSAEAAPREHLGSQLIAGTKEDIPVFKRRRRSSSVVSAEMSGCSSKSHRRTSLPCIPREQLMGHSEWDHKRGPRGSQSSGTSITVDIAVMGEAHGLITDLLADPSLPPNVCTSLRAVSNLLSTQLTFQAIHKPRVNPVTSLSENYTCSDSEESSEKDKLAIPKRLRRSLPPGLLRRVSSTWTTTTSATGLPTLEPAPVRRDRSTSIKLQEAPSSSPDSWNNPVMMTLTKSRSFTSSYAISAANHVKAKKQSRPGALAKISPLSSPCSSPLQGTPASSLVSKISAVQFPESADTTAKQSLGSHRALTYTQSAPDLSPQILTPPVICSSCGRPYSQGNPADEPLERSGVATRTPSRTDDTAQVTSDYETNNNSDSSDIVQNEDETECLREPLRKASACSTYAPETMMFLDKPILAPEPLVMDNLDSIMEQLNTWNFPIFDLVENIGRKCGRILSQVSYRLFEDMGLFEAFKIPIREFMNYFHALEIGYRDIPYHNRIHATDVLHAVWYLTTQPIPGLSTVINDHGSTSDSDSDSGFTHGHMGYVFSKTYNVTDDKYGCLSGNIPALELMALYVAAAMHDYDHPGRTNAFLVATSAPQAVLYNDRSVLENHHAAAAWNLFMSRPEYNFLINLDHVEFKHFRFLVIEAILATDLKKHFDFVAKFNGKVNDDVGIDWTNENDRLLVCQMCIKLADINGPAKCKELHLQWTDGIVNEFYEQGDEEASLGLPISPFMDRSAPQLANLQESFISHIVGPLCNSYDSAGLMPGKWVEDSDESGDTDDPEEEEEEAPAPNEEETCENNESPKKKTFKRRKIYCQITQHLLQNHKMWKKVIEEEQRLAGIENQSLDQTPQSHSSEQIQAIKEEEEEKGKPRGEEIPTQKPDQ
# [24] = Stability in dog hepatocytes; type: ADME, cell-based, Canis lupus familiaris, Hepatocyte
# Homo sapiens = organism: Homo sapiens; assay: Inhibition of sodium channel site 2 (unknown origin) at 10 uM by CEREP analysis relative to control
# [25] = Stability in human hepatocytes; type: ADME, cell-based, Hepatocyte
# [26] = Clearance in female Balb/c mouse at 5 mg/kg, iv; type: ADME, organism-based; conditions: in vivo
# [27] = biological target: 5-hydroxytryptamine receptor 2B (Homo sapiens) (UniProt P41595); assay: Inhibition of 5-HT2B receptor (unknown origin) at 10 uM by CEREP analysis relative to control
# Chain of 5-hydroxytryptamine receptor 2B (Homo sapiens) (P41595 whole entry): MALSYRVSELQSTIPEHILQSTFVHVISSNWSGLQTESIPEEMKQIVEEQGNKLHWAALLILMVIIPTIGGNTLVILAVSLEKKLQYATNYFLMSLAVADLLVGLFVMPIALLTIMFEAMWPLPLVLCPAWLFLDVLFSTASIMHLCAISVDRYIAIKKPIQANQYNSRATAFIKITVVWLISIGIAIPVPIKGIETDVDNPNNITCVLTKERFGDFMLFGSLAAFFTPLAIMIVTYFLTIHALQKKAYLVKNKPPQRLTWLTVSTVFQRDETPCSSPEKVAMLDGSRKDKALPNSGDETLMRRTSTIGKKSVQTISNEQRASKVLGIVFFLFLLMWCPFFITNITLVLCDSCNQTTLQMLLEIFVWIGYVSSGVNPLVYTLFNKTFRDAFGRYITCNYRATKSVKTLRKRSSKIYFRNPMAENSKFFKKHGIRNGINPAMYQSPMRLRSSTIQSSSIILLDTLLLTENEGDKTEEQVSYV
# [28] = Half life in male Beagle dog at 2 mg/kg, iv; type: ADME, organism-based, Canis lupus familiaris; conditions: in vivo
# [29] = AUClast in male Sprague-Dawley rat at 10 mg/kg, po; type: ADME, organism-based; conditions: in vivo
# [30] = Oral bioavailability in female Balb/c mouse at 30 mg/kg; type: ADME, organism-based; conditions: in vivo
# [31] = Volume of distribution in female Balb/c mouse at 5 mg/kg, iv; type: ADME, organism-based; conditions: in vivo
# [32] = Stability in mouse hepatocytes measured for 127 mins; type: ADME, cell-based, Hepatocyte; conditions: 2.117 h
# [33] = Dose-normalized AUC in male Beagle dog at 15 mg/kg, po; type: ADME, organism-based, Canis lupus familiaris; conditions: in vivo
# [34] = Stability in monkey hepatocytes measured for 75 mins; type: ADME, cell-based, Macaca mulatta, Hepatocyte; conditions: rhesus monkey, 1.25 h
# hERG = hERG (Homo sapiens, UniProt Q12809); assay: Inhibition of hERG at 10 uM by CEREP analysis relative to control; type: toxicity
# Chain of hERG (Q12809 whole entry): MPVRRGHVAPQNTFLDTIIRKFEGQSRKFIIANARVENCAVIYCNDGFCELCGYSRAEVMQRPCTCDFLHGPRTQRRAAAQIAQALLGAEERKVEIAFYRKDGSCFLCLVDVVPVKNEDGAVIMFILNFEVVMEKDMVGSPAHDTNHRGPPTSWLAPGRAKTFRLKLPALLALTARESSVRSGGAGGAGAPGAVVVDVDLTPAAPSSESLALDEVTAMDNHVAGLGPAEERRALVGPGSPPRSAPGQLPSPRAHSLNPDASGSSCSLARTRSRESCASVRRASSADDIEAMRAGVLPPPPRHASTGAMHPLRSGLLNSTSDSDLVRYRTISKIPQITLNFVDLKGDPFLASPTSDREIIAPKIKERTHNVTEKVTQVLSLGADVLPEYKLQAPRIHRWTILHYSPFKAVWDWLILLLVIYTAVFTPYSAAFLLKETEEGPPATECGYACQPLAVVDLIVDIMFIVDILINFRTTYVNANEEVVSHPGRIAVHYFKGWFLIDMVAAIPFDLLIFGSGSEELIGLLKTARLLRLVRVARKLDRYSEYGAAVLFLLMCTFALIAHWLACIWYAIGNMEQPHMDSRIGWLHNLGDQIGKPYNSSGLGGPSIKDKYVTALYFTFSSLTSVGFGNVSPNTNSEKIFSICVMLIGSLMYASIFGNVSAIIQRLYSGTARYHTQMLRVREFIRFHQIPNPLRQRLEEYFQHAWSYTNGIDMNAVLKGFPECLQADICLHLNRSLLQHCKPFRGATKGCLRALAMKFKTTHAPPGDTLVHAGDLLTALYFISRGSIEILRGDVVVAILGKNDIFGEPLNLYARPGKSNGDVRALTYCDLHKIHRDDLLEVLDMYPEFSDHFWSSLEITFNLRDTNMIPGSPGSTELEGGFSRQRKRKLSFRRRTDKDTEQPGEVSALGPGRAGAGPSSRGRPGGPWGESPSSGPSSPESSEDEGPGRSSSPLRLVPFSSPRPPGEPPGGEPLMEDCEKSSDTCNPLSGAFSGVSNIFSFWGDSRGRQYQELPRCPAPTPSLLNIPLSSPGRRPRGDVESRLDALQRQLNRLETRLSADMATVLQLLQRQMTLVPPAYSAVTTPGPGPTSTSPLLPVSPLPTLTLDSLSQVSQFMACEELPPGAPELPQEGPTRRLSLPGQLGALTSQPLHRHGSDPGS
# [35] = Clearance in male Sprague-Dawley rat at 3 mg/kg, iv; type: ADME, organism-based; conditions: in vivo
# [36] = Volume of distribution in male Beagle dog at 2 mg/kg, iv; type: ADME, organism-based, Canis lupus familiaris; conditions: in vivo
smiles,measurement,setting,value
CNC(=O)c1ccc(-c2cnc3ncc(Cc4ccc5ncccc5c4)n3n2)cc1F [CAPMATINIB],solubility kinetic,[1],17.5 µM
same,inhibition in vivo at 10 mg/kg,BaF3 [2],17%
same,solubility kinetic,[3],279 µM
COc1cc2nccc(Oc3c(F)cc(NC(=O)c4cnccc4OC)cc3F)c2cc1OCCO,Vd,[4],0.68 L/kg
same,AUC(0-t),[5],8220 ng·h/mL
same,inhibition at 10 µM,L-type calcium channel,6%
same,bioavailability,[6],8%
same,bioavailability,[7],20%
same,AUC/dose,[8],2040 ng.h/mL per mg/kg
same,inhibition,[9],11%
same,bioavailability,[10],61%
same,AUC(0-t),[11],7170 ng·h/mL
same,EC50,cells,64 nM
same,AUC/dose,[12],822 ng.h/mL per mg/kg
same,inhibition,[13],16%
same,inhibition,[14],10%
same,inhibition,[15],31%
same,half-life,[16],3 h
same,solubility kinetic,[1],12.7 µM
same,bioavailability,[17],34%
same,clearance,[18],6.7 mL/min/kg
same,half-life,[19],2.1 h
same,Stability,[20],Stable
same,bioavailability,[21],18%
same,EC50,BaF3 [22],40 nM
same,inhibition,[23],34%
same,Stability,[24],Stable
same,inhibition,Homo sapiens,25%
same,Stability,[25],Stable
same,clearance,[26],4.11 mL/min/kg
same,inhibition,[27],16%
same,half-life,[28],7.1 h
same,AUC(0-t),[29],28200 ng·h/mL
same,bioavailability,[30],13%
same,solubility kinetic,[3],279 µM
same,Vd,[31],0.38 L/kg
same,Stability,[32],Stable
same,AUC/dose,[33],464 ng.h/mL per mg/kg
same,Stability,[34],Stable
same,inhibition at 10 µM,hERG,8%
same,clearance,[35],4.8 mL/min/kg
same,Vd,[36],2.25 L/kg
